Results reported in patent publication US9358272B2, “Multicomponent compositions and their uses” (THE ADMINISTRATORS OF THE TULANE EDUCATIONAL FUND, priority 2011, dated 2016).
“Also recorded” adds a separate entry of the source.

Legend:
[1] = system: hepatoma HB-8064 (Hep3B) cells; assay: Cell proliferation assay (MTT), HB-8064 cells; format: cell-based
Experimental: (§1) Cell Proliferation Assay (MTT) The cell proliferation assay (Promega, Madison, Wis.) was performed as described in Sun et al., Bioorg Med Chem Lett, 2004, Vol. 14, pp. 2041-2046. The absorbance was measured and recorded at 570 nm by a Victor Plate Reader (PerkinElmer, Boston, Mass.).

[2] = system: gene expression in hepatoma HTB-52 cells; assay: RT-PCR / real-time PCR gene expression, HTB-52 cells; format: cell-based
Experimental: RT-PCR, Real-Time PCR RT-PCR was performed on total RNA that was isolated from tumor cells as described in the protocol (Invitrogen, Carlsbad, Calif.). All primers for SST, BN, and PACAP receptors were obtained from previously published reports, such as Sun et al. 2011. The PCR amplification is regularly 35 cycles, with more or less cycles due to the difference in RNA abundance of these investigated genes. Primers used for real-time PCR analyses were identical to those described above. Real-time PCR assays were performed as described in Sun et al 2011. β-actin was used as the internal control and results were calculated by applying 2^−ΔΔCT methods as described above.

hepatoma HTB-52 cells [3] = assay: VPA-induced cell morphological change, HTB-52 cells; format: cell-based
Source text: (§2) The cancer cells were inspected and photographed under an inverted light microscope at 10× magnification.

[4] = system: pancreatic cancer CFPAC-1 cells; assay: Cell proliferation assay (MTT), CFPAC-1 cells; format: cell-based, Human; details: single agents and combinations
Experimental: Cell Proliferation Assay (MTT)
The cell proliferation assay was performed as described previously in Sun et al., Bioorg Med Chem Lett, 2004, Vol. 14, pp. 2041-2046. Briefly, 50 μl aliquots of medium with different concentrations of compounds were added to 96-well plates. All compound concentrations were tested in triplicate. Another 50 μl of the cell stock (1×10^5 cells/ml of media) was dispensed into each test well and the plates were incubated at 37° C. in a CO2 incubator for 3 days. Following the incubation period, 15 μl of the dye solution was added to each well and the plates were then incubated at 37° C. for 4 hours, followed by the addition of 100 μl per well of the solubilization solution. The plates were incubated at 37° C. until the contents in each well became a uniform-colored solution. The absorbance was measured and recorded at 570 nm by a Victor Plate Reader.
The cell proliferation assay (Promega, Madison, Wis.) was performed as described in Sun et al., Bioorg Med Chem Lett, 2004, Vol. 14, pp. 2041-2046. The absorbance was measured and recorded at 570 nm by a Victor Plate Reader (PerkinElmer, Boston, Mass.).

hepatoma HTB-52 cells [5] = assay: Cell proliferation assay (MTT), HTB-52 cells; format: cell-based; details: single agents and combinations
Experimental: as §1

CNDT2 cells = assay: Cell proliferation assay (MTT), CNDT2 cells; format: cell-based; details: single agents and combinations
Experimental: as §1

MTC TT cells = assay: VPA-induced cell morphological change, TT cells; format: cell-based
Source text: as §2

[6] = system: cervical cancer Hela cells; assay: Cell proliferation assay (MTT), cervical cancer Hela cells; format: cell-based, Human; details: single agents and combinations, VPA 2.5 mM in FIGS. 19, 22
Experimental: Briefly, fifty μl of medium with or without tested compounds was added to 96-well plates. Another 50 μl of tested cancer cells (1×10^5 cells/ml) suspended in culture medium was dispensed into each well. The plates were incubated at 37° C. for 3 days. Afterward, plates were added with a 15 μl dye solution per well and incubated at 37° C. for 4 hours. To each well was then added 100 μl of the solubilization solution and the plates were incubated at 37° C. again until the contents in each well became a uniformly colored solution. The plates were measured at 570 nm by a Victor Reader (PerkinElmer).

Jurkat cells = assay: Cell proliferation assay (MTT), Jurkat cells; format: cell-based
Experimental: as §1

osteosarcoma U2OS cells = assay: VPA-induced cell morphological change, U2OS cells; format: cell-based, Human
Source text: as §2

Leukemia MOLT-4 cells = assay: Cell proliferation assay (MTT), MOLT-4 cells; format: cell-based; details: single agents and combinations
Experimental: as §1

[7] = system: ovarian cancer NCI/ADR-RES cells; assay: Cell proliferation assay (MTT), NCI/ADR-RES cells; format: cell-based
Experimental: as §1

Q: How did the “cell growth suppression (MTT), in words” value [1] turn out when `CCCC(CCC)C(=O)O` [VPA, valproic acid] was run?
A: displayed its anti-proliferative ability

Q: And the “effect on expression of Notch receptors (RT-PCR), in words” value ([2]; VPA at serial doses, FIG. 52)?
A: decreased Notch1 and Notch2, whereas Notch3 and Notch4 were undetectable

Q: What about the “effect on expression of SST, BN and PACAP receptors (RT-PCR), in words” value ([2]; VPA treatment, FIG. 55) of the same compound?
A: increased the expression of SSTR2 (19.8-fold, confirmed by real-time PCR), SSTR3, SSTR5, GRPR, BRS3, and VPAC1

Q: What about the “increase of SSTR2 expression” value ([2]; VPA treatment, confirmed by real-time PCR) of the same compound?
A: 19.8 fold

Q: What about the “cell morphological change, in words” value (hepatoma HTB-52 cells [3]) of the same compound?
A: could induce morphological change

Q: What about the “cell growth suppression (MTT), in words” value [4] of the same compound?
A: displayed its anti-proliferative ability

Q: What about the “cell growth suppression (MTT), in words” value (hepatoma HTB-52 cells [5]) of the same compound?
A: displayed its anti-proliferative ability

Q: And the “cell growth suppression (MTT), in words” value (CNDT2 cells)?
A: suppressed growth

Q: What about the “cell morphological change, in words” value (MTC TT cells) of the same compound?
A: no effect

Q: And the “cell growth suppression (MTT), in words” value [6]?
A: displayed growth inhibition; also recorded: suppressed cell proliferation in a dose-dependent manner; also recorded: induced growth arrest; also recorded: suppressed cervical cancer Hela cell growth in a dose-dependent manner

Q: And the “cell growth suppression (MTT), in words” value (Jurkat cells)?
A: displayed its anti-proliferative ability

Q: And the “cell morphological change, in words” value (osteosarcoma U2OS cells)?
A: could induce morphological change

Q: What about the “cell growth suppression (MTT), in words” value (Leukemia MOLT-4 cells) of the same compound?
A: displayed its anti-proliferative ability; also recorded: suppressed growth; also recorded: displays its anti-proliferation ability

Q: What about the “cell growth suppression (MTT), in words” value [7] of the same compound?
A: displayed its anti-proliferative ability; also recorded: displays its anti-proliferation ability
